Here are results for 11 compounds from paper PMC10126264, “Synergistic effect and antibiofilm activity of the antimicrobial peptide K11 with conventional antibiotics against multidrug-resistant and extensively drug-resistant Klebsiella pneumoniae” (Frontiers in Cellular and Infection Microbiology, 2023).

In data set [1] the test system is MDR/XDR K. pneumoniae clinical isolates. Kind of data set: Antimicrobial susceptibility testing, disk diffusion (CLSI). Format: cell-based, Klebsiella pneumoniae. Conditions: all fifteen isolates, CLSI guidelines. As to the method:
(§1) In this study, fifteen non-duplicate clinical isolates of MDR/XDR K. pneumoniae were obtained from the bacterial repository of the Division of Infectious Diseases and Tropical Medicine, Department of Medicine, Faculty of Medicine Siriraj Hospital, Mahidol University. […] Antimicrobial susceptibility testing was also carried out by the disk diffusion method according to CLSI guidelines ([Clinical and Laboratory Standards Institute, 2021]). Furthermore, all isolates were tested for colistin resistance by broth microdilution based on CLSI recommendations. […] The MDR bacteria was defined as bacteria that are resistant to at least one agent in three or more antimicrobial categories, while the XDR bacteria refer to bacteria that are resistant to at least one agent in all but two or fewer antimicrobial categories based on laboratory results. E. coli ATCC 25922 was used as a reference control strain for susceptibility testing. Other reference strains, including K. pneumoniae ATCC 70063 and K. pneumoniae ATCC BAA-1706 (bla KPC […]), were used as control strains throughout the study.

For data set [2] the test system is unchanged. In words: microbe, parasite or virus in culture. The conditions noted are these: Klebsiella pneumoniae. As to the method: The ability of K11 to inhibit bacterial growth was determined by the broth microdilution method ([Clinical and Laboratory Standards Institute, 2018]). Briefly, a series of 2-fold dilutions of K11 were prepared from 1,024 to 2 µg/mL in cation-adjusted Mueller-Hinton broth (CAMHB), Then 50 µL of each peptide dilution was added to each well of polystyrene 96-well U-bottom microplates. The log-phase cultures were adjusted to 0.5 McFarland standard and diluted 1:100 in CAMHB to provide the density of 10^6 CFU/mL. Consequently, 50 µL of diluted bacterial suspension was added to wells containing 50 µL of peptide solution, followed by incubation for 20-24 h at 37°C. […] To evaluate MBC, a volume of 10 μL was taken from each well with no visible growth, inoculated on Mueller-Hinton agar (MHA) plates, and incubated at 37°C. The MBC was defined as the lowest concentration of antimicrobials that killed at least 99.9% of the initial inoculums ([Clinical and Laboratory Standards Institute, 1999]).

The test system of data set [3] is K. pneumoniae ATCC BAA-1706. It is filed as cell-based, Klebsiella pneumoniae. Conditions: compared to day 1. As to the method: The resistance development of K11, ciprofloxacin, and colistin was assessed according to the previously described protocol ([Pollard et al., 2012]). Briefly, MIC values for a K. pneumoniae ATCC BAA-1706 were first examined and recorded. […] This inoculum was subjected to another MIC assay. […] The process was repeated for 30 passages. The MIC values for K11 and antibiotics were recorded and plotted as the MIC fold change compared to day 1 of the experiment.

For data set [4] the following is noted: ref Witherell et al., 2021; cited from earlier work. The text has this: K11 is a synthetic peptide derived from natural AMPs (cecropin A1, melittin, and maganin 2), composed of 20 amino acids ([…]-NH2). […] Moreover, K11 has also been successfully used in vivo as a topic hydrogel solution against Acinetobacter baumannii-infected wounds ([Rishi et al., 2018]).

Data set [5] relates to MDR/XDR K. pneumoniae clinical isolates. In words: Colistin MIC, broth microdilution (CLSI). It is filed as cell-based, Klebsiella pneumoniae. The conditions noted are these: all fifteen isolates, resistance defined as MIC ≥4 µg/mL. As to the method: as §1

In brackets after ≈: the same amount, converted by molar mass. Read-outs that look alike come from different tables or passages of the source.

In the case of `C[C@H]1[C@H](NC(=O)/C(=N\OC(C)(C)C(=O)O)c2csc(N)n2)C(=O)N1S(=O)(=O)O` [aztreonam], in data set [1], the antimicrobial susceptibility profile entry is listed as “resistant”.

Turning to `CO/N=C(\C(=O)N[C@@H]1C(=O)N2C(C(=O)[O-])=C(C[N+]3(C)CCCC3)CS[C@H]12)c1csc(N)n1` [cefepime], the antimicrobial susceptibility profile result in data set [1] was “resistant”.

`CO[C@@]1(NC(=O)Cc2cccs2)C(=O)N2C(C(=O)O)=C(COC(N)=O)CS[C@@H]21` [cefoxitin]: the antimicrobial susceptibility profile result in data set [1] is “resistant”.

With `CC(C)(O/N=C(\C(=O)N[C@@H]1C(=O)N2C(C(=O)[O-])=C(C[n+]3ccccc3)CS[C@H]12)c1csc(N)n1)C(=O)O` [ceftazidime], the antimicrobial susceptibility profile entry in data set [1] is given as “resistant”.

Turning to `CO/N=C(\C(=O)N[C@@H]1C(=O)N2C(C(=O)O)=C(CSc3nc(=O)c(=O)[nH]n3C)CS[C@H]12)c1csc(N)n1` [ceftriaxone], the antimicrobial susceptibility profile entry in data set [1] was “resistant”.

As to `O=C(N[C@H](CO)[C@H](O)c1ccc([N+](=O)[O-])cc1)C(Cl)Cl` [chloramphenicol], the antimicrobial susceptibility profile entry in data set [1] is “resistant”. Moreover, in data set [2], the MIC stood at 16 µg/mL (≈ 49.5 µM).

As to `O=C(O)c1cn(C2CC2)c2cc(N3CCNCC3)c(F)cc2c1=O` [ciprofloxacin], the MIC fold change in data set [3] (after 7 serial passages at 0.5×MIC) worked out at 16 fold; in data set [3] (after 12 passages at 0.5×MIC, maintained until 30 passages) it was 64 fold.

Turning to `C[C@@H](O)[C@H]1C(=O)N2C(C(=O)O)=C(S[C@@H]3CN[C@H](C(=O)Nc4cccc(C(=O)O)c4)C3)[C@H](C)[C@H]12` [ertapenem], in data set [1], the antimicrobial susceptibility profile entry is reported as “resistant”.

`C[C@@H](O)[C@H]1C(=O)N2C(C(=O)O)=C(S[C@@H]3CN[C@H](C(=O)N(C)C)C3)[C@H](C)[C@H]12` [meropenem, reference compound]: in data set [2], the MIC was 64 µg/mL (≈ 167 µM).

Regarding `CO[C@H]1/C=C/O[C@@]2(C)Oc3c(C)c(O)c4c(O)c(c(/C=N/N5CCN(C)CC5)c(O)c4c3C2=O)NC(=O)/C(C)=C\C=C\[C@H](C)[C@H](O)[C@@H](C)[C@@H](O)[C@@H](C)[C@H](OC(C)=O)[C@@H]1C` [rifampicin], the MIC in data set [2] amounted to 32 µg/mL (≈ 38.9 µM).

colistin [reference compound]: in data set [4], the “concentration showing significant hemolytic activity” value is “more than 100 μg/mL”. For the same compound, the “MICs, all isolates” value in data set [5] was at least 4 µg/mL.
